Patent US11173151B2, “Substituted triazole derivatives and uses thereof” (BAYER AKTIENGESELLSCHAFT, priority 2017, dated 2021)

Assays:
human V2 receptor = biological target: T1, human V2 receptor (Homo sapiens, UniProt P30518); test: Cellular in vitro assay for determining vasopressin receptor activity, V2 receptor cell line (CHO, CRE-luciferase); assay type: cell-based; details: CHO cell line transfected with human V2 receptor; [Arg8]-vasopressin at EC50 concentration, 3 hours; read-out: IC50 hV2
T1 construct: expressed in transfected cells; host or cells: CHO K1 (ATCC) expressing firefly luciferase under a CRE-responsive promoter
Experimental: (§1) B-1. Cellular In Vitro Assay for Determining Vasopressin Receptor Activity
(§2) The identification of agonists and antagonists of the V1a and V2 vasopressin receptors from humans, rats and dogs as well as the quantification of the activity of the compounds of the invention is carried out using recombinant cell lines. These cell lines originally derive from a hamster's ovary epithelial cell (Chinese Hamster Ovary, CHO K1, ATCC: American Type Culture Collection, Manassas, Va. 20108, USA). The test cell lines constitutively express the human, rat or dog V1a or V2 receptors. In case of the Gαq-coupled V1a receptors, cells are also stably transfected with a modified form of the calcium-sensitive photoproteins aequorin (human and rat V1a) or obelin (dog V1a), which, after reconstitution with the cofactor coelenterazine, emit light when there are increases in free calcium concentrations [Rizzuto R, Simpson A W, Brini M, Pozzan T, Nature 358, 325-327 (1992); Illarionov B A, Bondar V S, Illarionova V A, Vysotski E S, Gene 153 (2), 273-274 (1995)]. The resulting vasopressin receptor cells react to stimulation of the recombinantly expressed V1a receptors by intracellular release of calcium ions, which can be quantified by the resulting photoprotein luminescence. The Gs-coupled V2 receptors are stably transfected into cell lines expressing the gene for firefly luciferase under control of a CRE-responsible promoter. Activation of V2 receptors induces the activation of the CRE-responsive promoter via cAMP increase, thereby inducing the expression of firefly luciferase. The light emitted by photoproteins of V1a cell lines as well as the light emitted by firefly luciferase of V2 cell lines corresponds to the activation or inhibition of the respective vasopressin receptor. The bioluminescence of the cell lines is detected using a suitable luminometer [Milligan G, Marshall F, Rees S, Trends in Pharmacological Sciences 17, 235-237 (1996)].
Vasopressin V2 Receptor Cell Lines:
On the day before the assay, the cells are plated out in culture medium (DMEM/F12, 2% FCS, 2 mM glutamine, 10 mM HEPES) in 384-well microtiter plates and kept in a cell incubator (96% humidity, 5% v/v CO2, 37° C.). On the day of the assay, test compounds in various concentrations and the agonist [Arg^8]-vasopressin at EC50 concentration are added together to the wells, and plates are incubated for 3 hours in a cell incubator. Upon addition of the cell lysis reagent Triton™ and the substrate luciferin, luminescence of firefly luciferase is measured in a luminometer.
(§3) Table 1A below lists individual IC50 values for the compounds of the invention (including racemic mixtures as well as separated enantiomers) that were obtained from cell lines transfected with the human V1a or V2 receptor: […]

human V1a receptor = biological target: T2, human V1a receptor (Homo sapiens, UniProt P37288); test: Cellular in vitro assay for determining vasopressin receptor activity, V1a receptor cell line (CHO, aequorin luminescence); assay type: cell-based; details: for IC50: CHO cell line transfected with human V1a receptor, [Arg]-vasopressin at EC50 concentration, read-out: IC50 hV1a; for ratio IC50 hV2/hV1a: selectivity ratio IC50 hV2 / IC50 hV1a
T2 construct: expressed in transfected cells; host or cells: CHO K1 (ATCC), also stably transfected with a modified aequorin
Experimental: as §1, §2
Vasopressin V1a Receptor Cell Lines:
On the day before the assay, the cells are plated out in culture medium (DMEM/F12, 2% FCS, 2 mM glutamine, 10 mM HEPES, 5 μg/ml coelenterazine) in 384-well microtiter plates and kept in a cell incubator (96% humidity, 5% v/v CO2, 37° C.). On the day of the assay, test compounds in various concentrations are placed for 10 minutes in the wells of the microtiter plate before the agonist [Arg]-vasopressin at EC50 concentration is added. The resulting light signal is measured immediately in a luminometer.
as §3

T1 sequence (P30518 whole entry): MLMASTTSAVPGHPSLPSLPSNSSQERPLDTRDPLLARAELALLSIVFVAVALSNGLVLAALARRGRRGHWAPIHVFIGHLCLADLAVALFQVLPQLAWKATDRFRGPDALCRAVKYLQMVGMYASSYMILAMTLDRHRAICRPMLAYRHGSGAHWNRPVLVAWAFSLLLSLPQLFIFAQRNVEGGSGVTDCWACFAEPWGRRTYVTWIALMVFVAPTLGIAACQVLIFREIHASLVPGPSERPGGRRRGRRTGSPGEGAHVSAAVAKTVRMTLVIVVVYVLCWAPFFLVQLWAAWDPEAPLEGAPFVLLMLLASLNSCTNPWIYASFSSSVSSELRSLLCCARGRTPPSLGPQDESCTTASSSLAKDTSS
T2 sequence (P37288 whole entry): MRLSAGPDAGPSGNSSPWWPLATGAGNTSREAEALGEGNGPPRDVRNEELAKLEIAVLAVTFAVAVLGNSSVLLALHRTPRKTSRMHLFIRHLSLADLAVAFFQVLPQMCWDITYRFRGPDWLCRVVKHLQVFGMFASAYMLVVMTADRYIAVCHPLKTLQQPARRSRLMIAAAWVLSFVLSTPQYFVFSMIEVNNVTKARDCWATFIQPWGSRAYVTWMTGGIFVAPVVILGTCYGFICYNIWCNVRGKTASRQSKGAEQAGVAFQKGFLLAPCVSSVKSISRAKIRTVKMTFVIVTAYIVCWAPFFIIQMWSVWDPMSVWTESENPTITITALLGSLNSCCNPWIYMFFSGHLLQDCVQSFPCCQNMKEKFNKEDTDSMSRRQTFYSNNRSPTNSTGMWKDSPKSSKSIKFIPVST

Row | Compound | IC50 (human V2 receptor) | IC50 (human V1a receptor) | ratio IC50 hV2/hV1a (human V1a receptor)
1 | CCC(C)NC(=O)c1ccccc1-n1cnc(Cn2nc(-c3ccc(Cl)cc3)n(C[C@H](O)C(F)(F)F)c2=O)n1 (mixture of isomers) [Example 204, N-[Butan-2-yl]-2-[3-({3-(4-chlorophenyl)-5-oxo-4-[(2S)-3,3,3-trifluoro-2-hydroxypropyl]-4,5-dihydro-1H-1,2,4-triazol-1-yl}methyl)-1H-1,2,4-triazol-1-yl]benzamide] | 0.115 µM | 0.00125 µM | 92.0
2 | O=C(NC1CCOC1)c1ccccc1-n1cnc(Cn2nc(-c3ccc(Cl)cc3)n(C[C@H](O)C(F)(F)F)c2=O)n1 (mixture of isomers) [Example 208, 2-[3-({3-(4-Chlorophenyl)-5-oxo-4-[(2S)-3,3,3-trifluoro-2-hydroxypropyl]-4,5-dihydro-1H-1,2,4-triazol-1-yl}methyl)-1H-1,2,4-triazol-1-yl]-N-[tetrahydrofuran-3-yl]benzamide] | 0.0955 µM | 0.0024 µM | 39.8
3 | CC1CCCC(NC(=O)c2ccccc2-n2cnc(Cn3nc(-c4ccc(Cl)cc4)n(C[C@H](O)C(F)(F)F)c3=O)n2)C1 (mixture of isomers) [Example 224, 2-[3-({3-(4-Chlorophenyl)-5-oxo-4-[(2S)-3,3,3-trifluoro-2-hydroxypropyl]-4,5-dihydro-1H-1,2,4-triazol-1-yl}methyl)-1H-1,2,4-triazol-1-yl]-N-(3-methylcyclohexyl)benzamide] | 0.145 µM | 0.0126 µM | 11.5
4 | O=C(NC1CCOC1=O)c1ccccc1-n1cnc(Cn2nc(-c3ccc(Cl)cc3)n(C[C@H](O)C(F)(F)F)c2=O)n1 (mixture of isomers) [Example 231, 2-[3-({3-(4-Chlorophenyl)-5-oxo-4-[(2S)-3,3,3-trifluoro-2-hydroxypropyl]-4,5-dihydro-1H-1,2,4-triazol-1-yl}methyl)-1H-1,2,4-triazol-1-yl]-N-[(3S)-2-oxotetrahydrofuran-3-yl]benzamide] | 0.775 µM | 0.00305 µM | 254.1
5 | COC1CCCN(C(=O)c2ccccc2-n2cnc(Cn3nc(-c4ccc(Cl)cc4)n(C[C@H](O)C(F)(F)F)c3=O)n2)C1 (mixture of isomers) [Example 269, 5-(4-Chlorophenyl)-2-{[1-(2-{[3-methoxypiperidin-1-yl]carbonyl}phenyl)-1H-1,2,4-triazol-3-yl]methyl}-4-[(2S)-3,3,3-trifluoro-2-hydroxypropyl]-2,4-dihydro-3H-1,2,4-triazol-3-one] | 1.05 µM | 0.0025 µM | 422.0
6 | CC1SCCN1C(=O)c1ccccc1-n1cnc(Cn2nc(-c3ccc(Cl)cc3)n(C[C@H](O)C(F)(F)F)c2=O)n1 (mixture of isomers) [Example 270, 5-(4-Chlorophenyl)-2-{[1-(2-{[2-methyl-1,3-thiazolidin-3-yl]carbonyl}phenyl)-1H-1,2,4-triazol-3-yl]methyl}-4-[(2S)-3,3,3-trifluoro-2-hydroxypropyl]-2,4-dihydro-3H-1,2,4-triazol-3-one] | 1.44 µM | 0.0021 µM | 685.7
7 | CN1CCC(N(C)C(=O)c2ccccc2-n2cnc(Cn3nc(-c4ccc(Cl)cc4)n(C[C@H](O)C(F)(F)F)c3=O)n2)C1 (mixture of isomers) [Example 274, 2-[3-({3-(4-Chlorophenyl)-5-oxo-4-[(2S)-3,3,3-trifluoro-2-hydroxypropyl]-4,5-dihydro-1H-1,2,4-triazol-1-yl}methyl)-1H-1,2,4-triazol-1-yl]-N-methyl-N-[1-methylpyrrolidin-3-yl]benzamide] | 9.65 µM | 0.022 µM | 438.6
8 | CC1CCCN(C(=O)c2ccccc2-n2cnc(Cn3nc(-c4ccc(Cl)cc4)n(C[C@H](O)C(F)(F)F)c3=O)n2)C1C (mixture of isomers) [Example 275, 5-(4-Chlorophenyl)-2-[(1-{2-[(2,3-dimethylpiperidin-1-yl)carbonyl]phenyl}-1H-1,2,4-triazol-3-yl)methyl]-4-[(2S)-3,3,3-trifluoro-2-hydroxypropyl]-2,4-dihydro-3H-1,2,4-triazol-3-one] | 1.24 µM | 0.00255 µM | 484.3
9 | CC1C(=O)NCCN1C(=O)c1ccccc1-n1cnc(Cn2nc(-c3ccc(Cl)cc3)n(C[C@H](O)C(F)(F)F)c2=O)n1 (mixture of isomers) [Example 280, 4-{2-[3-({3-(4-Chlorophenyl)-5-oxo-4-[(2S)-3,3,3-trifluoro-2-hydroxypropyl]-4,5-dihydro-1H-1,2,4-triazol-1-yl}methyl)-1H-1,2,4-triazol-1-yl]benzoyl}-3-methylpiperazin-2-one] | 10.1 µM | 0.0785 µM | 129.3
10 | CC1COCCN1C(=O)c1ccccc1-n1cnc(Cn2nc(-c3ccc(Cl)cc3)n(C[C@H](O)C(F)(F)F)c2=O)n1 (mixture of isomers) [Example 282, 5-(4-Chlorophenyl)-2-{[1-(2-{[3-methylmorpholin-4-yl]carbonyl}phenyl)-1H-1,2,4-triazol-3-yl]methyl}-4-[(2S)-3,3,3-trifluoro-2-hydroxypropyl]-2,4-dihydro-3H-1,2,4-triazol-3-one] | 2.35 µM | 0.00235 µM | 1000.0
11 | CC1CN(C(=O)c2ccccc2-n2cnc(Cn3nc(-c4ccc(Cl)cc4)n(C[C@H](O)C(F)(F)F)c3=O)n2)CCO1 (mixture of isomers) [Example 283, 5-(4-Chlorophenyl)-2-{[1-(2-{[2-methylmorpholin-4-yl]carbonyl}phenyl)-1H-1,2,4-triazol-3-yl]methyl}-4-[(2S)-3,3,3-trifluoro-2-hydroxypropyl]-2,4-dihydro-3H-1,2,4-triazol-3-one] | 7.5 µM | 0.00605 µM | 1239.7
12 | CC(O)CNC(=O)c1ccccc1-n1cnc(Cn2nc(-c3ccc(Cl)cc3)n(C[C@H](O)C(F)(F)F)c2=O)n1 (mixture of isomers) [Example 292, 2-[3-({3-(4-Chlorophenyl)-5-oxo-4-[(2S)-3,3,3-trifluoro-2-hydroxypropyl]-4,5-dihydro-1H-1,2,4-triazol-1-yl}methyl)-1H-1,2,4-triazol-1-yl]-N-[2-hydroxypropyl]benzamide] | 0.0645 µM | 0.00295 µM | 21.9
13 | O=C(NCC(O)CO)c1ccccc1-n1cnc(Cn2nc(-c3ccc(Cl)cc3)n(C[C@H](O)C(F)(F)F)c2=O)n1 (mixture of isomers) [Example 297, 2-[3-({3-(4-Chlorophenyl)-5-oxo-4-[(2S)-3,3,3-trifluoro-2-hydroxypropyl]-4,5-dihydro-1H-1,2,4-triazol-1-yl}methyl)-1H-1,2,4-triazol-1-yl]-N-[2,3-dihydroxypropyl]benzamide] | 1.4 µM | 0.00505 µM | 277.2
14 | O=C(c1ccccc1-n1cnc(Cn2nc(-c3ccc(Cl)cc3)n(C[C@H](O)C(F)(F)F)c2=O)n1)N1CCC(O)C1 (mixture of isomers) [Example 298, 5-(4-Chlorophenyl)-2-{[1-(2-{[3-hydroxypyrrolidin-1-yl]carbonyl}phenyl)-1H-1,2,4-triazol-3-yl]methyl}-4-[(2S)-3,3,3-trifluoro-2-hydroxypropyl]-2,4-dihydro-3H-1,2,4-triazol-3-one] | 1.54 µM | 0.0033 µM | 468.2
15 | CC1CCCCC1NC(=O)c1ccccc1-n1cnc(Cn2nc(-c3ccc(Cl)cc3)n(C[C@H](O)C(F)(F)F)c2=O)n1 (mixture of isomers) [Example 319, 2-[3-({3-(4-Chlorophenyl)-5-oxo-4-[(2S)-3,3,3-trifluoro-2-hydroxypropyl]-4,5-dihydro-1H-1,2,4-triazol-1-yl}methyl)-1H-1,2,4-triazol-1-yl]-N-(2-methylcyclohexyl)benzamide] | 0.325 µM | 0.00355 µM | 91.5
